# According to PubChem BioAssay (NCI):
#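 Each compound was tested at five concentrations against cells in 96-well plates for 48 hours. At the GI50, growth is halved. At the TGI there is no net growth.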
# Test system: OVCAR-3 ovarian
# Assay: growth of human tumour cells (NCI), 48 h
Structure (SMILES),GI50 [µM],TGI [µM]
CCOC(=O)Nc1ccc(-c2nc(-c3cccc(OCCN4CCOCC4)c3)c(-c3ccnc(Br)c3)[nH]2)cc1,4.3,> 100
COc1cc(Cn2c(-c3ccccc3)c(Cl)c3c2-c2oncc2CC3)cc(OC)c1,4.63,22.9
COc1ccc(-c2nn(-c3ccc(NC(=O)c4ccc(Cl)c(Cl)c4)cc3)cc2-c2ccncc2)cc1Cl,> 20.3,> 50
O=C(CC1(O)C(=O)N(Cc2ccccc2)c2ccc(F)cc21)c1ccc(C(=O)NCC2CCC3(CC2)OOC2(CCCCC2)OO3)cc1 (stereo not given),0.254,0.634
COc1cc2c3c(n(C)c(=O)c2cc1OC)-c1cc2c(cc1/C3=C\CN)OCO2,1.58,14.8
COc1ccc(/C=C2/N=C(c3ccccc3)N(c3c(C)n(C)n(-c4ccccc4)c3=O)C2=O)cc1OC,> 100,> 100
C[C@@H]1CC[C@@H]2[C@@H]1[C@H](OC(=O)/C=C/c1ccccc1)[C@]1(C3CCCCC3)C[C@@H](OC(=O)CO)[C@@]2(C)O1,2.53,7.3
CCCN1C(=O)N(CCC)C2C1NC(=S)N2/N=C/C=C/c1ccccc1OC (stereo not given),0.273,0.815
CCn1c2ccccc2c2cc(NC(=O)Nc3ccc([N+](=O)[O-])cc3C)ccc21,3.39,19.4
COc1cc2c(c(OC)c1OC)-c1ccc(SC)c(=O)cc1C(NC=O)CC2 (stereo not given),,2.33
CCSc1ncnc2c1ncn2C1OC(CO)C(O)C1O (stereo not given),0.312,> 79.7
O=C(CSc1nc2ccccc2nc1-c1ccccc1)Nc1ccc(F)cc1,28,> 100
CC[C@H]1[C@@H]2C=C[C@@H]3[C@H]4C/C=C\C(=O)NCCC[C@@H]5NC(=O)/C(=C(O)/C=C/[C@@H]4C[C@@H]3[C@H]2C[C@H]1C)C5=O,0.202,0.556
CN1C(=O)N(C)C2C1NN=c1s/c(=C\c3ccc(Cl)cc3Cl)c(=O)n12 (stereo not given),0.104,11.2
Cc1ccc(NC(=O)CC2CC2)cc1-c1ccc(C(=O)NCC2CC2)cc1,> 25,> 25
CNCC#Cc1c(F)ccc2c1/C(=C/c1[nH]ccc1OC)C(=O)N2,0.516,2.74
COc1cc(-n2cc(-c3ccc(F)cc3)[nH]c2=O)cc(OC)c1OC,> 100,> 100
Cn1cc(C2=C(c3cn(CCCCO)c4ccccc34)C(=O)NC2=O)c2ccccc21,8.09,> 25

# Test system: OVCAR-4 ovarian
# Assay: growth of human tumour cells (NCI), 48 h
Structure (SMILES),GI50 [µM],TGI [µM]
CCOC(=O)Nc1ccc(-c2nc(-c3cccc(OCCN4CCOCC4)c3)c(-c3ccnc(Br)c3)[nH]2)cc1,4.36,> 100
COc1cc(Cn2c(-c3ccccc3)c(Cl)c3c2-c2oncc2CC3)cc(OC)c1,6.57,79.8
COc1ccc(-c2nn(-c3ccc(NC(=O)c4ccc(Cl)c(Cl)c4)cc3)cc2-c2ccncc2)cc1Cl,> 14.1,> 50
O=C(CC1(O)C(=O)N(Cc2ccccc2)c2ccc(F)cc21)c1ccc(C(=O)NCC2CCC3(CC2)OOC2(CCCCC2)OO3)cc1 (stereo not given),1.81,4.62
COc1cc2c3c(n(C)c(=O)c2cc1OC)-c1cc2c(cc1/C3=C\CN)OCO2,5.55,> 27.2
COc1ccc(/C=C2/N=C(c3ccccc3)N(c3c(C)n(C)n(-c4ccccc4)c3=O)C2=O)cc1OC,> 100,> 100
C[C@@H]1CC[C@@H]2[C@@H]1[C@H](OC(=O)/C=C/c1ccccc1)[C@]1(C3CCCCC3)C[C@@H](OC(=O)CO)[C@@]2(C)O1,3.92,16
CCCN1C(=O)N(CCC)C2C1NC(=S)N2/N=C/C=C/c1ccccc1OC (stereo not given),1.95,> 100
CCn1c2ccccc2c2cc(NC(=O)Nc3ccc([N+](=O)[O-])cc3C)ccc21,5.48,85
COc1cc2c(c(OC)c1OC)-c1ccc(SC)c(=O)cc1C(NC=O)CC2 (stereo not given),,> 100
CCSc1ncnc2c1ncn2C1OC(CO)C(O)C1O (stereo not given),9.87,> 100
O=C(CSc1nc2ccccc2nc1-c1ccccc1)Nc1ccc(F)cc1,1.96,15.7
CC[C@H]1[C@@H]2C=C[C@@H]3[C@H]4C/C=C\C(=O)NCCC[C@@H]5NC(=O)/C(=C(O)/C=C/[C@@H]4C[C@@H]3[C@H]2C[C@H]1C)C5=O,0.664,2.16
CN1C(=O)N(C)C2C1NN=c1s/c(=C\c3ccc(Cl)cc3Cl)c(=O)n12 (stereo not given),1.66,> 78.9
Cc1ccc(NC(=O)CC2CC2)cc1-c1ccc(C(=O)NCC2CC2)cc1,> 25,> 25
CNCC#Cc1c(F)ccc2c1/C(=C/c1[nH]ccc1OC)C(=O)N2,0.495,3.2
COc1cc(-n2cc(-c3ccc(F)cc3)[nH]c2=O)cc(OC)c1OC,> 100,> 100
Cn1cc(C2=C(c3cn(CCCCO)c4ccccc34)C(=O)NC2=O)c2ccccc21,13.9,> 25

# Test system: HOP-92 NSCLC
# Assay: growth of human tumour cells (NCI), 48 h
Structure (SMILES),GI50 [µM],TGI [µM]
CCOC(=O)Nc1ccc(-c2nc(-c3cccc(OCCN4CCOCC4)c3)c(-c3ccnc(Br)c3)[nH]2)cc1,2.77,7.79
COc1cc(Cn2c(-c3ccccc3)c(Cl)c3c2-c2oncc2CC3)cc(OC)c1,50,> 100
COc1ccc(-c2nn(-c3ccc(NC(=O)c4ccc(Cl)c(Cl)c4)cc3)cc2-c2ccncc2)cc1Cl,7.65,> 50
O=C(CC1(O)C(=O)N(Cc2ccccc2)c2ccc(F)cc21)c1ccc(C(=O)NCC2CCC3(CC2)OOC2(CCCCC2)OO3)cc1 (stereo not given),0.186,0.378
COc1cc2c3c(n(C)c(=O)c2cc1OC)-c1cc2c(cc1/C3=C\CN)OCO2,2.09,> 77.1
COc1ccc(/C=C2/N=C(c3ccccc3)N(c3c(C)n(C)n(-c4ccccc4)c3=O)C2=O)cc1OC,> 100,> 100
C[C@@H]1CC[C@@H]2[C@@H]1[C@H](OC(=O)/C=C/c1ccccc1)[C@]1(C3CCCCC3)C[C@@H](OC(=O)CO)[C@@]2(C)O1,2.68,9.17
CCCN1C(=O)N(CCC)C2C1NC(=S)N2/N=C/C=C/c1ccccc1OC (stereo not given),0.624,> 100
CCn1c2ccccc2c2cc(NC(=O)Nc3ccc([N+](=O)[O-])cc3C)ccc21,1.27,4.64
COc1cc2c(c(OC)c1OC)-c1ccc(SC)c(=O)cc1C(NC=O)CC2 (stereo not given),,> 100
CCSc1ncnc2c1ncn2C1OC(CO)C(O)C1O (stereo not given),1.98,12.2
O=C(CSc1nc2ccccc2nc1-c1ccccc1)Nc1ccc(F)cc1,20.3,58.1
CC[C@H]1[C@@H]2C=C[C@@H]3[C@H]4C/C=C\C(=O)NCCC[C@@H]5NC(=O)/C(=C(O)/C=C/[C@@H]4C[C@@H]3[C@H]2C[C@H]1C)C5=O,1.41,2.82
CN1C(=O)N(C)C2C1NN=c1s/c(=C\c3ccc(Cl)cc3Cl)c(=O)n12 (stereo not given),0.406,79.4
Cc1ccc(NC(=O)CC2CC2)cc1-c1ccc(C(=O)NCC2CC2)cc1,8.45,> 25
CNCC#Cc1c(F)ccc2c1/C(=C/c1[nH]ccc1OC)C(=O)N2,0.669,1.96
COc1cc(-n2cc(-c3ccc(F)cc3)[nH]c2=O)cc(OC)c1OC,> 100,> 100
Cn1cc(C2=C(c3cn(CCCCO)c4ccccc34)C(=O)NC2=O)c2ccccc21,17.1,> 25

# Test system: NCI-H23 lung
# Assay: growth of human tumour cells (NCI), 48 h
Structure (SMILES),GI50 [µM],TGI [µM]
CCOC(=O)Nc1ccc(-c2nc(-c3cccc(OCCN4CCOCC4)c3)c(-c3ccnc(Br)c3)[nH]2)cc1,2.19,5.6
COc1cc(Cn2c(-c3ccccc3)c(Cl)c3c2-c2oncc2CC3)cc(OC)c1,6.15,> 100
COc1ccc(-c2nn(-c3ccc(NC(=O)c4ccc(Cl)c(Cl)c4)cc3)cc2-c2ccncc2)cc1Cl,> 12.7,> 50
O=C(CC1(O)C(=O)N(Cc2ccccc2)c2ccc(F)cc21)c1ccc(C(=O)NCC2CCC3(CC2)OOC2(CCCCC2)OO3)cc1 (stereo not given),0.246,0.634
COc1cc2c3c(n(C)c(=O)c2cc1OC)-c1cc2c(cc1/C3=C\CN)OCO2,0.249,8.77
COc1ccc(/C=C2/N=C(c3ccccc3)N(c3c(C)n(C)n(-c4ccccc4)c3=O)C2=O)cc1OC,> 100,> 100
C[C@@H]1CC[C@@H]2[C@@H]1[C@H](OC(=O)/C=C/c1ccccc1)[C@]1(C3CCCCC3)C[C@@H](OC(=O)CO)[C@@]2(C)O1,3.88,14.8
CCCN1C(=O)N(CCC)C2C1NC(=S)N2/N=C/C=C/c1ccccc1OC (stereo not given),2.66,> 100
CCn1c2ccccc2c2cc(NC(=O)Nc3ccc([N+](=O)[O-])cc3C)ccc21,3.9,30.6
COc1cc2c(c(OC)c1OC)-c1ccc(SC)c(=O)cc1C(NC=O)CC2 (stereo not given),,50
CCSc1ncnc2c1ncn2C1OC(CO)C(O)C1O (stereo not given),0.434,> 100
O=C(CSc1nc2ccccc2nc1-c1ccccc1)Nc1ccc(F)cc1,69.7,> 100
CC[C@H]1[C@@H]2C=C[C@@H]3[C@H]4C/C=C\C(=O)NCCC[C@@H]5NC(=O)/C(=C(O)/C=C/[C@@H]4C[C@@H]3[C@H]2C[C@H]1C)C5=O,1.81,4.28
CN1C(=O)N(C)C2C1NN=c1s/c(=C\c3ccc(Cl)cc3Cl)c(=O)n12 (stereo not given),0.37,52.9
Cc1ccc(NC(=O)CC2CC2)cc1-c1ccc(C(=O)NCC2CC2)cc1,> 25,> 25
CNCC#Cc1c(F)ccc2c1/C(=C/c1[nH]ccc1OC)C(=O)N2,0.283,1.26
COc1cc(-n2cc(-c3ccc(F)cc3)[nH]c2=O)cc(OC)c1OC,> 100,> 100
Cn1cc(C2=C(c3cn(CCCCO)c4ccccc34)C(=O)NC2=O)c2ccccc21,10.1,> 25

# Test system: T-47D breast
# Assay: growth of human tumour cells (NCI), 48 h
Structure (SMILES),GI50 [µM],TGI [µM]
CCOC(=O)Nc1ccc(-c2nc(-c3cccc(OCCN4CCOCC4)c3)c(-c3ccnc(Br)c3)[nH]2)cc1,2.74,> 100
COc1cc(Cn2c(-c3ccccc3)c(Cl)c3c2-c2oncc2CC3)cc(OC)c1,17.5,> 100
COc1ccc(-c2nn(-c3ccc(NC(=O)c4ccc(Cl)c(Cl)c4)cc3)cc2-c2ccncc2)cc1Cl,> 50,> 50
O=C(CC1(O)C(=O)N(Cc2ccccc2)c2ccc(F)cc21)c1ccc(C(=O)NCC2CCC3(CC2)OOC2(CCCCC2)OO3)cc1 (stereo not given),0.843,3.11
COc1cc2c3c(n(C)c(=O)c2cc1OC)-c1cc2c(cc1/C3=C\CN)OCO2,0.0176,0.639
COc1ccc(/C=C2/N=C(c3ccccc3)N(c3c(C)n(C)n(-c4ccccc4)c3=O)C2=O)cc1OC,77.5,> 100
C[C@@H]1CC[C@@H]2[C@@H]1[C@H](OC(=O)/C=C/c1ccccc1)[C@]1(C3CCCCC3)C[C@@H](OC(=O)CO)[C@@]2(C)O1,2.64,10.7
CCCN1C(=O)N(CCC)C2C1NC(=S)N2/N=C/C=C/c1ccccc1OC (stereo not given),0.376,37
CCn1c2ccccc2c2cc(NC(=O)Nc3ccc([N+](=O)[O-])cc3C)ccc21,2.34,9.54
COc1cc2c(c(OC)c1OC)-c1ccc(SC)c(=O)cc1C(NC=O)CC2 (stereo not given),,> 100
CCSc1ncnc2c1ncn2C1OC(CO)C(O)C1O (stereo not given),1.69,> 48.9
O=C(CSc1nc2ccccc2nc1-c1ccccc1)Nc1ccc(F)cc1,19.2,99.4
CC[C@H]1[C@@H]2C=C[C@@H]3[C@H]4C/C=C\C(=O)NCCC[C@@H]5NC(=O)/C(=C(O)/C=C/[C@@H]4C[C@@H]3[C@H]2C[C@H]1C)C5=O,1.7,4.1
CN1C(=O)N(C)C2C1NN=c1s/c(=C\c3ccc(Cl)cc3Cl)c(=O)n12 (stereo not given),0.0576,> 100
Cc1ccc(NC(=O)CC2CC2)cc1-c1ccc(C(=O)NCC2CC2)cc1,> 17.3,> 25
CNCC#Cc1c(F)ccc2c1/C(=C/c1[nH]ccc1OC)C(=O)N2,0.671,4.36
COc1cc(-n2cc(-c3ccc(F)cc3)[nH]c2=O)cc(OC)c1OC,> 100,> 100
Cn1cc(C2=C(c3cn(CCCCO)c4ccccc34)C(=O)NC2=O)c2ccccc21,9.64,24.8
